The subject of assay [1] is CHO-K1. Kind of assay: benchmark concentration for 60% increase in hypodiploid frequency (BMC60); higher = less potent aneugen. As for the experimental part: (§1)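 Benchmark concentration modelling (PROAST, Hill/exponential model families) of the 19-concentration flow-cytometric micronucleus assay in CHO-K1 cells, with and without rat liver S9. Only non-cytotoxic and adequate (relative survival >=40%) concentrations were used. BMR was a 30% increase in %MN (BMC30) or a 60% increase in %hypodiploid (BMC60) over control.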

In assay [2] the test system is CHO-K1. The experiment in a line: benchmark concentration for 30% increase in micronucleus frequency (BMC30); higher = less potent clastogen. As for the experimental part: as §1
[3] abbreviates: S9 metabolic activation: without S9.
The mark [4] stands for this setting: S9 metabolic activation: with S9.

As for `ClCC(Cl)CCl` [1,2,3-Trichloropropane], the benchmark concentration came to 72 µM in the assay with CHO-K1 [1] (setting [3]) and 46 µM in the assay on CHO-K1 [2] (setting [3]).
In the case of `O=c1[nH]sc2ccccc12` [1,2-Benzisothiazolin-3-one], the benchmark concentration in the assay on CHO-K1 [2] (setting [4]) stood at 32 µM.
Regarding `Cc1cccc([N+](=O)[O-])c1C` [1,2-Dimethyl-3-nitrobenzene], the figures for the benchmark concentration in the assay on CHO-K1 [1] (setting [3]), in the assay with CHO-K1 [2] (setting [4]) and with CHO-K1 [2] (setting [3]) were 38 µM, 59 µM and 41 µM, respectively.
As to `c1ccc(NNc2ccccc2)cc1` [1,2-Diphenylhydrazine], the benchmark concentration in the assay on CHO-K1 [1] (setting [4]) was found to be 45 µM; in the assay on CHO-K1 [1] (setting [3]), 68 µM; in the assay with CHO-K1 [2] (setting [4]), 22 µM; in the assay on CHO-K1 [2] (setting [3]), 46 µM.
Take `CC(O)CO` (centres undefined) [1,2-Propylene glycol]: the benchmark concentration in the assay with CHO-K1 [1] (setting [3]) came out at 44 µM; in the assay with CHO-K1 [2] (setting [3]) it was 130 µM.
In the same order, the values of `CC1(C)C(=O)N(Cl)C(=O)N1Cl` [1,3-Dichloro-5,5-dimethylhydantoin] are 55 µM and 31 µM.
In the same order, the values of `NC(=Nc1ccccc1)Nc1ccccc1` [1,3-Diphenylguanidine] are 67 µM and 78 µM.
The like results for `O=S1(=O)CCCO1` [1,3-Propane sultone] were, in that order, 80 µM and 110 µM.
Take `Nc1cccc2c(N)cccc12` [1,5-Naphthalenediamine]: the results for the benchmark concentration with CHO-K1 [1] (setting [3]) and in the assay with CHO-K1 [2] (setting [4]) were 66 µM and 8.6 µM, respectively.
With `Cc1cccc2ccccc12` [1-Methylnaphthalene], the benchmark concentration was 110 µM in the assay with CHO-K1 [1] (setting [3]) and 57 µM with CHO-K1 [2] (setting [3]).
`O=c1[nH]cnc2c1ncn2[C@H]1CC[C@@H](CO)O1` [2',3'-Dideoxyinosine] displayed a benchmark concentration in the assay with CHO-K1 [2] (setting [3]) of 84 µM.
As for `Oc1cc(Cl)c(Cl)cc1Cl` [2,4,5-Trichlorophenol], the benchmark concentration in the assay with CHO-K1 [1] (setting [3]) turned out to be 38 µM; in the assay on CHO-K1 [2] (setting [4]), 6.5 µM.
Turning to `Oc1ccc(Cl)cc1Cl` [2,4-Dichlorophenol], the benchmark concentration in the assay with CHO-K1 [1] (setting [3]) came to 20 µM; with CHO-K1 [2] (setting [4]), 17 µM; in the assay with CHO-K1 [2] (setting [3]), 17 µM.
In the assay on CHO-K1 [2] (setting [3]), `Cc1ccc(O)c(C)c1` [2,4-Dimethylphenol] registered a benchmark concentration of 79 µM.
As for `O=[N+]([O-])c1ccc(O)c([N+](=O)[O-])c1` [2,4-Dinitrophenol], the benchmark concentration in the assay on CHO-K1 [1] (setting [3]) was found to be 49 µM; in the assay on CHO-K1 [2] (setting [3]) it was 86 µM.
The like results for `Cc1ccc(C)c(O)c1` [2,5-Dimethylphenol] were, in that order, 39 µM and 37 µM.
In the same order, the values of `Cc1cccc(C)c1O` [2,6-Dimethylphenol] are 110 µM and 87 µM.
As for `CCC(C)c1ccccc1O` (centres undefined) [2-(Butan-2-yl)phenol], the benchmark concentration came out at 30 µM in the assay with CHO-K1 [1] (setting [4]), 170 µM in the assay with CHO-K1 [1] (setting [3]) and 23 µM in the assay on CHO-K1 [2] (setting [4]).
In the same order, the values of `Nc1ccc2c(c1)C(=O)c1ccccc1C2=O` [2-Aminoanthraquinone] are 22 µM, 29 µM and 8.1 µM.
Consider `COc1ccccc1N` [2-Anisidine], for which the results for the benchmark concentration in the assay with CHO-K1 [1] (setting [3]) and with CHO-K1 [2] (setting [3]) were 120 µM and 46 µM, respectively.
Regarding `O=C(CCl)c1ccccc1` [2-Chloroacetophenone], the benchmark concentration came out at 62 µM in the assay with CHO-K1 [1] (setting [4]) and 60 µM in the assay with CHO-K1 [2] (setting [4]).
Turning to `OCCCl` [2-Chloroethanol], the benchmark concentration worked out at 130 µM in the assay on CHO-K1 [1] (setting [3]) and 60 µM with CHO-K1 [2] (setting [3]).
The like results for `COc1ccc(C)cc1N` [2-Methoxy-5-methylaniline] were, in that order, 89 µM and 48 µM.
The like results for `Cc1ccccc1N` [2-Methylaniline] were, in that order, 49 µM and 21 µM.
On to `Nc1ccc2ccccc2c1` [2-Naphthylamine], for which the benchmark concentration in the assay on CHO-K1 [1] (setting [4]) was found to be 43 µM; in the assay with CHO-K1 [1] (setting [3]), 47 µM; in the assay with CHO-K1 [2] (setting [3]), 51 µM.

The values are drawn from the supplement of paper PMC9151546.
